Values quoted from earlier work, collected in paper PMC4895178 (Scientific Reports, 2016).

Details: in plasma
Excerpt: The pioneering work of Vale et al.[8] established that residues 7 to 10 form the ph ...

For `C[C@H](N)C(=O)NCC(=O)N[C@H]1CSSC[C@@H](C(=O)O)NC(=O)[C@H](CO)NC(=O)[C@H]([C@@H](C)O)NC(=O)[C@H](Cc2ccccc2)NC(=O)[C@H]([C@@H](C)O)NC(=O)[C@H](CCCCN)NC(=O)[C@H](Cc2c[nH]c3ccccc23)NC(=O)[C@H](Cc2ccccc2)NC(=O)[C@H](Cc2ccccc2)NC(=O)[C@H](CC(N)=O)NC(=O)[C@H](CCCCN)NC1=O` [Somatostatin (SRIF), Somatostatin], the half-life is listed as 2 to 3 min.
